Source: patent publication US8178506B2, “Oligomeric compounds and compositions for use in modulation of small non-coding RNAs” (Regulus Therapeutics Inc., priority 2003, dated 2012)
In the oligonucleotide strings, read from the 5' end, every base follows the letter of its sugar. An asterisk marks phosphorothioate; unmarked linkages are phosphodiester. Other units and linkages are bracketed, terminal groups are in braces. A string of capitals states the bases alone. e = 2'-O-(2-methoxyethyl) (MOE); [5mC] = 5-methylcytosine

Tested on: IL-12 mRNA
Assay: IL-12 mRNA in LPS-activated primary murine macrophages
Format: cell-based, mouse
Details: for IL-12 mRNA expression, −IFN % UTC: 300 nM oligomeric compound and LPS, no IFN-gamma pretreatment, single experiment; for IL-12 mRNA expression, −IFN % UTC / IL-12 mRNA expression, +IFN % UTC: normalized to LPS-treated cells without oligomeric compound; for IL-12 mRNA expression, +IFN % UTC: 300 nM oligomeric compound, stimulation with IFN-gamma and LPS, average of 2 experiments; for IL-12 mRNA expression, % UTC: LPS, average of 3 treatments

Row | Substance | IL-12 mRNA expression, −IFN % UTC [% UTC] | IL-12 mRNA expression, +IFN % UTC [% UTC] | also measured
1 | 327887 (antisense eG*e[5mC]*eG*eA*e[5mC]*e[5mC]*eA*eT*eG*eG*e[5mC]*eT*eG*eT*eA*eG*eA*e[5mC]*eT*eG*eT*eT*eA) [compound 327887] | 287 | 33 | –
2 | 327899 (antisense e[5mC]*eA*eG*eT*eG*eA*eA*eT*eT*e[5mC]*eT*eA*e[5mC]*e[5mC]*eA*eG*eT*eG*e[5mC]*e[5mC]*eA*eT*eA) [compound 327899] | 164 | 7 | –
3 | 327912 (antisense eA*eA*e[5mC]*eT*eA*eT*eA*e[5mC]*eA*eA*eT*e[5mC]*eT*eA*e[5mC]*eT*eA*e[5mC]*e[5mC]*eT*e[5mC]*eA) [compound 327912] | 206 | 39 | –
4 | 327917 (antisense eT*e[5mC]*eA*eA*e[5mC]*eA*eT*e[5mC]*eA*eG*eT*e[5mC]*eT*eG*eA*eT*eA*eA*eG*e[5mC]*eT*eA) [compound 327917] | 225 | 35 | –
5 | 327920 (antisense eG*eA*eG*eA*e[5mC]*e[5mC]*e[5mC]*eA*eG*eT*eA*eG*e[5mC]*e[5mC]*eA*eG*eA*eT*eG*eT*eA*eG*e[5mC]*eT) [compound 327920] | 171 | 68 | –
6 | 327921 (antisense e[5mC]*eT*eT*e[5mC]*e[5mC]*eA*eG*eT*e[5mC]*eG*eG*eG*eG*eA*eT*eG*eT*eT*eT*eA*e[5mC]*eA) [compound 327921] | 325 | 24 | IL-12 mRNA expression, % UTC (75 nM, +IFN): 14 % UTC; IL-12 mRNA expression, % UTC (75 nM, −IFN): 109 % UTC; IL-12 mRNA expression, % UTC (150 nM, +IFN): 7 % UTC; IL-12 mRNA expression, % UTC (150 nM, −IFN): 88 % UTC; IL-12 mRNA expression, % UTC (300 nM, +IFN): 5 % UTC; IL-12 mRNA expression, % UTC (300 nM, −IFN): 67 % UTC; IL-12 mRNA expression, % UTC (600 nM, +IFN): 5 % UTC; IL-12 mRNA expression, % UTC (600 nM, −IFN): 53 % UTC
7 | 327923 (antisense eG*eA*eA*eA*eG*eA*eG*eA*e[5mC]*e[5mC]*eG*eG*eT*eT*e[5mC]*eA*e[5mC]*eT*eG*eT*eG*eA) [compound 327923] | 269 | 134 | –
8 | 327927 (antisense eT*eG*eT*eA*eA*eA*e[5mC]*e[5mC]*eA*eT*eG*eA*eT*eG*eT*eG*e[5mC]*eT*eG*e[5mC]*eT*eA) [compound 327927] | 164 | 33 | –
9 | 327928 (antisense eA*eA*e[5mC]*e[5mC]*eG*eA*eT*eT*eT*e[5mC]*eA*eG*eA*eT*eG*eG*eT*eG*e[5mC]*eT*eA*eG) [compound 327928] | 201 | 61 | –
10 | 327956 (antisense e[5mC]*eA*e[5mC]*eA*eG*eT*eT*eG*e[5mC]*e[5mC]*eA*eG*e[5mC]*eT*eG*eA*eG*eA*eT*eT*eA) [compound 327956] | 212 | 59 | –
11 | 328105 (antisense e[5mC]*e[5mC]*eT*e[5mC]*eA*eA*eT*eT*eA*eT*eT*eG*eG*eA*eA*eA*eT*e[5mC]*eA*e[5mC]*eA) [compound 328105] | 108 | 57 | –
12 | 328110 (antisense eG*eA*eT*eA*eA*eA*eG*e[5mC]*e[5mC]*eA*eA*eT*eA*eA*eA*e[5mC]*eT*eG*eT*e[5mC]*eA) [compound 328110] | 221 | 8 | –
13 | 328117 (antisense eT*e[5mC]*e[5mC]*eA*e[5mC]*eA*eA*eA*eG*e[5mC]*eT*eG*eA*eA*e[5mC]*eA*eT*eG*eT*e[5mC]*eT) [compound 328117] | 162 | 72 | –
14 | 328123 (antisense eT*eT*eA*e[5mC]*eA*eG*eG*eT*eG*e[5mC]*eT*eG*e[5mC]*eA*eA*e[5mC]*eT*eG*eG*eA*eA) [compound 328123] | 176 | 14 | –
